Experiments:
[1] = in vitro; settings: human, MT4 cells
Description: Selectivity index, ratio of CC50 for human MT4 cells to EC50 for HIV1 NL4-3 infected in human MT4 cells

[2] = system: Human immunodeficiency virus 1; assay type: functional, organism-based; settings: Human immunodeficiency virus 1, NL4-3, MT4
[3] = molecular target: Human immunodeficiency virus type 1 reverse transcriptase (Human immunodeficiency virus 1, UniProt Q72547, Y181I)
[4] = system: Human immunodeficiency virus 1; assay: Antiviral activity against HIV1 3B infected in human CEM cells assessed as protection against virus-induced cytopathicity by giant cell formation assay; assay type: functional, organism-based; settings: Human immunodeficiency virus 1, 3B, CCRF-CEM
[5] = system: Human immunodeficiency virus 1; assay type: functional, organism-based; settings: Human immunodeficiency virus 1, NL4-3, MT4; remark: listed apart in the source
[6] = system: Human immunodeficiency virus 1; assay: Antiviral activity against HIV1 NL4-3 expressing reverse transcriptase K103N mutant infected in human MT4 cells assessed as reduction in virus-induced cell death by MTT assay; assay type: functional, organism-based; settings: Human immunodeficiency virus 1, NL4-3, MT4
[7] = system: Human immunodeficiency virus 1; assay: Antiviral activity against HIV1 NL4-3 expressing reverse transcriptase L100I mutant infected in human MT4 cells assessed as reduction in virus-induced cell death by MTT assay; assay type: functional, organism-based; settings: Human immunodeficiency virus 1, NL4-3, MT4
[8] = Cytotoxic activity against human MT4 cells by MTT assay; assay type: cell-based
[9] = system: Human immunodeficiency virus 1; assay type: functional, organism-based; settings: Human immunodeficiency virus 1, NL4-3, MT4; remark: listed apart in the source
[10] = molecular target: Human immunodeficiency virus type 1 reverse transcriptase (Human immunodeficiency virus 1, UniProt Q72547, K103N)
Description: Inhibition of wild type HIV1 reverse transcriptase K103N mutant assessed as reduction in enzyme activity

[11] = system: Human immunodeficiency virus 1; assay: Antiviral activity against HIV1 NL4-3 infected in human MT4 cells assessed as reduction in virus-induced cell death by MTT assay; assay type: functional, organism-based; settings: Human immunodeficiency virus 1, NL4-3, MT4
[12] = molecular target: Human immunodeficiency virus type 1 reverse transcriptase (Human immunodeficiency virus 1, UniProt Q72547)
Description: Inhibition of wild type HIV1 reverse transcriptase assessed as reduction in enzyme activity

[13] = system: Human immunodeficiency virus 2; assay: Antiviral activity against HIV2 ROD infected in human CEM cells assessed as protection against virus-induced cytopathicity by giant cell formation assay; assay type: functional, organism-based; settings: Human immunodeficiency virus 2, ISOLATE ROD, CCRF-CEM
[14] = molecular target: Human immunodeficiency virus type 1 reverse transcriptase (Human immunodeficiency virus 1, UniProt Q72547, L100I)
Description: Inhibition of wild type HIV1 reverse transcriptase L100I mutant assessed as reduction in enzyme activity

Structure (SMILES)	selectivity ratio [1]	EC50 [2]	IC50 [3]	EC50 [4]	EC50 [5]	EC50 [6]	EC50 [7]	CC50 [8]	EC50 [9]	IC50 [10]	EC50 [11]	IC50 [12]	EC50 [13]	IC50 [14]
Cc1cc(C)cc(S(=O)(=O)c2c(C(=O)Nc3cccc(N)c3)[nH]c3ccc(Cl)cc23)c1	108000	2140 nM	226 nM	17 nM	947 nM	4.4 nM	57 nM	23800 nM	66 nM	310 nM	0.22 nM	19 nM	–	–
Cc1cc(C)cc(S(=O)(=O)c2c(C(=O)NNc3ccncc3)[nH]c3ccc(Cl)cc23)c1	727	55000 nM	> 20000 nM	730 nM	–	16000 nM	–	30300 nM	> 20000 nM	> 20000 nM	41.7 nM	> 20000 nM	≥ 50000 nM	9400 nM
NC(=O)c1[nH]c2ccc(Cl)cc2c1S(=O)(=O)c1c(Cl)cccc1Cl	64100	16000 nM	–	–	> 16000 nM	> 16000 nM	–	16000 nM	5170 nM	–	0.25 nM	–	–	–
O=C1Nc2ccc(Cl)cc2[C@@](C#CC2CC2)(C(F)(F)F)O1 [EFAVIRENZ]	–	> 317 nM	–	–	–	–	22 nM	> 15800 nM	–	–	–	–	–	–
Cc1cc(C)cc(S(=O)(=O)c2c(C(=O)NC(C)c3cccs3)[nH]c3ccc(Cl)cc23)c1 (stereo not given)	162000	2640 nM	–	–	347 nM	2.1 nM	–	32300 nM	68 nM	79 nM	0.2 nM	27 nM	–	–
Cc1cccc(C)c1S(=O)(=O)c1c(C(=O)NCc2ccncc2)[nH]c2ccc(Cl)cc12	> 167	> 55100 nM	–	–	> 55100 nM	> 55100 nM	–	> 55100 nM	> 55100 nM	–	330 nM	–	–	–
Cc1cc(C)cc(S(=O)(=O)c2c(C(=O)NCCc3cccs3)[nH]c3ccc(Cl)cc23)c1	> 62900	> 52900 nM	> 20000 nM	3.4 nM	–	21 nM	5.4 nM	> 52900 nM	160 nM	42 nM	0.84 nM	70 nM	> 50000 nM	1 nM
Cc1cc(C#N)cc(C)c1Oc1nc(Nc2ccc(C#N)cc2)nc(N)c1Br [ETRAVIRINE]	–	16 nM	–	–	33 nM	16 nM	–	> 30600 nM	6 nM	–	3.7 nM	–	–	–
Cc1cc(C)cc(S(=O)(=O)c2c(C(=O)NCCn3c([N+](=O)[O-])cnc3C)[nH]c3ccc(Cl)cc23)c1	40900	> 48500 nM	131 nM	4.1 nM	–	140 nM	140 nM	25400 nM	670 nM	640 nM	0.62 nM	44 nM	> 10000 nM	160 nM
Cc1cc(C)cc(S(=O)(=O)c2c(C(=O)NCCc3ccccc3)[nH]c3ccc(Cl)cc23)c1	18000	> 53500 nM	> 20000 nM	–	> 36400 nM	21 nM	–	37900 nM	107 nM	–	2.1 nM	–	–	–
Cc1cc(C)cc(S(=O)(=O)c2c(C(=O)NC(C)c3cccnc3)[nH]c3ccc(Cl)cc23)c1 (racemic)	91000	8480 nM	> 20000 nM	6.6 nM	–	34 nM	20 nM	54600 nM	220 nM	120 nM	0.6 nM	100 nM	> 10000 nM	20 nM
Cc1cc(C)cc(S(=O)(=O)c2c(C(=O)NN(C)c3ccccc3)[nH]c3ccc(Cl)cc23)c1	21000	> 42700 nM	> 20000 nM	–	> 42700 nM	64.1 nM	–	44100 nM	1470 nM	234 nM	2.1 nM	16 nM	–	–
Cc1cc(C)cc(S(=O)(=O)c2c(C(=O)NCc3ccncn3)[nH]c3ccc(Cl)cc23)c1	> 250000	132 nM	4.2 nM	–	50.6 nM	–	–	> 55000 nM	2.2 nM	96 nM	0.22 nM	42 nM	–	–
O=C(NCc1ccncc1)c1[nH]c2ccc(Cl)cc2c1S(=O)(=O)c1c(Cl)cccc1Cl	> 62400	> 50500 nM	–	–	> 50500 nM	5260 nM	–	> 50300 nM	2530 nM	–	0.81 nM	–	–	–
Cc1cc(C)cc(S(=O)(=O)c2c(C(=O)NCc3cccs3)[nH]c3ccc(Cl)cc23)c1	> 77800	> 54500 nM	> 20000 nM	5.2 nM	–	9.1 nM	7.1 nM	> 54500 nM	160 nM	> 20000 nM	0.7 nM	30 nM	> 10000 nM	100 nM
Cc1cc(C)cc(S(=O)(=O)c2c(C(=O)NCc3ccco3)[nH]c3ccc(Cl)cc23)c1	> 282000	971 nM	234 nM	–	45 nM	–	–	> 56400 nM	0.8 nM	9 nM	0.2 nM	3 nM	–	–
Cc1cc(C)cc(S(=O)(=O)c2c(C(=O)NC(C)c3ccccc3)[nH]c3ccc(Cl)cc23)c1 (stereo not given)	> 206000	–	8230 nM	–	–	–	26 nM	> 53500 nM	–	–	–	–	> 10000 nM	70 nM
Cc1cc(C)cc(S(=O)(=O)c2c(C(=O)Nc3ccncc3)[nH]c3ccc(Cl)cc23)c1	89600	> 20600 nM	–	–	1270 nM	–	–	20600 nM	16 nM	–	0.23 nM	–	–	–
Cc1cc(C)cc(S(=O)(=O)c2c(C(=O)NCc3ccccc3)[nH]c3ccc(Cl)cc23)c1	173000	1920 nM	> 20000 nM	–	90 nM	0.9 nM	–	38000 nM	–	> 20000 nM	0.22 nM	–	–	–
Cc1ccnc2c1NC(=O)c1cccnc1N2C1CC1 [NEVIRAPINE]	–	> 3760 nM	–	–	> 3760 nM	> 3760 nM	60 nM	> 18800 nM	> 3760 nM	–	112 nM	–	–	–
Cc1cccc(C)c1S(=O)(=O)c1c(C(N)=O)[nH]c2ccc(Cl)cc12	> 1110	> 48900 nM	–	–	> 48900 nM	> 49400 nM	–	> 48900 nM	42700 nM	–	44.1 nM	–	–	–

— ChEMBL document CHEMBL3351613, “Indolylarylsulfones carrying a heterocyclic tail as very potent and broad spectrum HIV-1 non-nucleoside reverse transcriptase inhibitors” (J Med Chem, 2014)
